Molecular target: Human recombinant carboxy-terminal his-tagged LDHA (amino acids 2-332) (Homo sapiens, UniProt P00338)
Experiment: LDHA enzyme inhibition assay (NADH fluorescence)
Settings: LDHA IC50 (μM), 1 nM LDHA, NADH and pyruvate, stereochemistry of tested sample given

IC50 [µM]	SMILES
0.047	O=C1CC(c2ccsc2)(c2cccc(OCC(F)F)n2)NC(=O)C1Sc1ccccc1Cl (single isomer, unassigned) [Example 254, 3-(2-chlorophenyl)sulfanyl-6-[6-(2,2-difluoroethoxy)-2-pyridyl]-6-(3-thienyl) piperidine-2,4-dione]
0.004	CC(Oc1cccc(C2(c3ccsc3)CC(=O)C(Sc3ccccc3Cl)C(=O)N2)n1)C1CC1 (single isomer, unassigned) [Example 159, 3-((2-chlorophenyl)thio)-6-(6-(1-cyclopropyl-ethoxy)pyridin-2-yl)-6-(thiophen-3-yl)piperidine-2,4-dione]
0.019	O=C1CC(c2ccsc2)(c2cccc(Oc3ccc(F)c(C(F)(F)F)c3)n2)NC(=O)C1Sc1ccccc1Cl (centres unmarked) [Example 150, 3-(2-chlorophenyl)sulfanyl-6-[6-[4-fluoro-3-(trifluoromethyl)phenoxy]-2-pyridyl]-6-(3-thienyl) piperidine-2,4-dione]
0.073	Cn1nccc1Nc1cccc(C2(c3ccsc3)CC(=O)C(Sc3ccccc3Cl)C(=O)N2)n1 (centres unmarked) [Example 269, 3-((2-chlorophenyl)thio)-6-(6-((1-methyl-1H-pyrazol-5-yl)amino)pyridin-2-yl)-6-(thiophen-3-yl)piperidine-2,4-dione]
0.008	O=C1CC(c2ccsc2)(c2cccc(OCC3CC3)n2)NC(=O)C1Sc1ccccc1Cl (single isomer, unassigned) [Example 84, 3-(2-chlorophenyl)sulfanyl-6-[6-(cyclopropyl-methoxy)-2-pyridyl]-6-(3-thienyl)piperidine-2,4-dione]
0.01	COCC(C)Oc1cccc(C2(c3ccsc3)CC(=O)C(Sc3ccccc3Cl)C(=O)N2)n1 (centres unmarked) [Example 246, 3-(2-chlorophenyl)sulfanyl-6-[6-(2-methoxy-1-methyl-ethoxy)-2-pyridyl]-6-(3-thienyl)piperidine-2,4-dione]
0.003	CC(C)CCOc1cccc(C2(c3ccsc3)CC(=O)C(Sc3ccccc3Cl)C(=O)N2)n1 (single isomer, unassigned) [Example 124, 3-((2-chlorophenyl)thio)-6-(6-(isopentyloxy)pyridin-2-yl)-6-(thiophen-3-yl)piperidine-2,4-dione]
0.732	O=C1CC(c2ccsc2)(c2cccc(OC3CCC(O)C3)n2)NC(=O)C1Sc1ccccc1Cl (single isomer, unassigned) [Example 106, 3-((2-chlorophenyl)thio)-6-(6-((3-hydroxy-cyclopentyl)oxy)pyridin-2-yl)-6-(thiophen-3-yl)piperidin-2,4-dione]
0.022	O=C1CC(c2ccsc2)(c2cccc(OCC(F)(F)F)n2)NC(=O)C1Sc1ccccc1Cl (single isomer, unassigned) [Example 86, 3-(2-chlorophenyl)sulfanyl-6-(3-thienyl)-6-[6-(2,2,2-trifluoroethoxy)-2-pyridyl]piperidine-2,4-dione]
0.01	O=C1CC(c2ccsc2)(c2cccc(Oc3ccc(F)c(Cl)c3)n2)NC(=O)C1Sc1ccccc1Cl (single isomer, unassigned) [Example 112, 6-(6-(3-chloro-4-fluoro-phenoxy)pyridin-2-yl)-3-((2-chlorophenyl)thio)-6-(thiophen-3-yl) piperidine-2,4-dione]
0.006	O=C1CC(c2ccsc2)(c2cccc(-c3ccncc3)n2)NC(=O)C1Sc1ccccc1Cl (centres unmarked) [Example 260, 6-([2,4′-bipyridin]-6-yl)-3-((2-chlorophenyl)thio)-6-(thiophen-3-yl)piperidine-2,4-dione]
0.008	O=C1CC(c2ccsc2)(c2cccc(Oc3cccc(C(F)F)c3)n2)NC(=O)C1Sc1ccccc1Cl (single isomer, unassigned) [Example 127, 3-(2-chlorophenyl)sulfanyl-6-[6-[3-(difluoromethyl)phenoxy]-2-pyridyl]-6-(3-thienyl)piperidine-2,4-dione]
0.095	CC(O)c1cccc(Nc2cccc(C3(c4ccsc4)CC(=O)C(Sc4ccccc4Cl)C(=O)N3)n2)c1 (centres unmarked) [Example 307, 3-((2-chlorophenyl)thio)-6-(6-((3-(1-hydroxy-ethyl)phenyl)amino)pyridin-2-yl)-6-(thiophen-3-yl)piperidine-2,4-dione]
0.02	O=C1CC(c2ccsc2)(c2cccc(OCC3CCC3)n2)NC(=O)C1Sc1ccccc1Cl (centres unmarked) [Example 224, 3-(2-chlorophenyl)sulfanyl-6-[6-(cyclobutylmethoxy)-2-pyridyl]-6-(3-thienyl) piperidine-2,4-dione]
0.012	O=C1CC(c2ccsc2)(c2cccc(Oc3ccccc3-c3cn[nH]c3)n2)NC(=O)C1Sc1ccccc1Cl (centres unmarked) [Example 18, 3-(2-chlorophenyl)sulfanyl-6-[6-[2-(1H-pyrazol-4-yl)phenoxy]-2-pyridyl]-6-(3-thienyl)piperidine-2,4-dione]
0.011	O=C1CC(c2ccsc2)(c2cccc(Oc3cccc(F)c3F)n2)NC(=O)C1Sc1ccccc1Cl (centres unmarked) [Example 53, 3-(2-chlorophenyl)sulfanyl-6-[6-(2,3-difluoro-phenoxy)-2-pyridyl]-6-(3-thienyl)piperidine-2,4-dione]
0.01	O=C1CC(c2ccsc2)(c2cccc(Oc3ccc(F)c(F)c3)n2)NC(=O)C1Oc1ccccc1Cl (centres unmarked) [Example 217, 3-(2-chlorophenoxy)-6-[6-(3,4-difluorophenoxy)-2-pyridyl]-6-(3-thienyl) piperidine-2,4-dione]
0.041	COc1cc(Cc2cccc(C3(c4ccsc4)CC(=O)C(Sc4ccccc4Cl)C(=O)N3)n2)ccc1F (single isomer, unassigned) [Example 284, 3-((2-chlorophenyl)thio)-6-(6-(4-fluoro-3-methoxy-benzyl)pyridin-2-yl)-6-(thiophen-3-yl)piperidine-2,4-dione]
0.05	O=C1CC(c2ccsc2)(c2ccc(N3CCOCC3)c(Oc3ccc(F)cc3)n2)NC(=O)C1Sc1ccccc1Cl (centres unmarked) [Example 27, 3-(2-chlorophenyl)sulfanyl-6-[6-(4-fluorophenoxy)-5-morpholino-2-pyridyl]-6-(3-thienyl)piperidine-2,4-dione]
0.056	CC1(COc2cccc(C3(c4ccsc4)CC(=O)C(Sc4ccccc4Cl)C(=O)N3)n2)CC1 (single isomer, unassigned) [Example 182, 3-(2-chlorophenyl)sulfanyl-6-[6-[(1-methylcyclo-propyl)methoxy]-2-pyridyl]-6-(3-thienyl)piperidine-2,4-dione]
0.232	O=C1CCC(COc2cccc(C3(c4ccsc4)CC(=O)C(Sc4ccccc4Cl)C(=O)N3)n2)O1 (single isomer, unassigned) [Example 192, 3-(2-chlorophenyl)sulfanyl-6-[6-[(5-oxotetrahydrofuran-2-yl)methoxy]-2-pyridyl]-6-(3-thienyl)piperidine-2,4-dione]
0.009	O=C1CC(c2ccsc2)(c2cccc(OCCC3CCC3)n2)NC(=O)C1Sc1ccccc1Cl (single isomer, unassigned) [Example 132, 3-((2-chlorophenyl)thio)-6-(6-(2-cyclobutyl-ethoxy)pyridin-2-yl)-6-(thiophen-3-yl)piperidine-2,4-dione]
0.119	Cn1nncc1-c1ccccc1Oc1cccc(C2(c3ccsc3)CC(=O)C(Sc3ccccc3Cl)C(=O)N2)n1 (centres unmarked) [Example 21, 3-(2-chlorophenyl)sulfanyl-6-[6-[2-(3-methyltriazol-4-yl)phenoxy]-2-pyridyl]-6-(3-thienyl)piperidine-2,4-dione]
